Measured values taken from patent publication US4046879A, “Antiviral compositions” (priority 1975, dated 1977).

Experiments:
[1] = system: rhinovirus-ribonucleic acid; assay: Role of the hydrolyzable β-γ-oxygen-bridge in autocatalytic degradation of rhinovirus RNA; assay type: biochemical
Description: 3. The essential role of the hydrolyzable β-γ-oxygen-bridge in the nucleoside triphosphate for the autocatalytic degradation of the rhinovirus-ribonucleic acid was shown by: […]

[2] = system: radioactive-labeled rhinovirus ribonucleic acid; assay: Synergism test: inducible decomposition of P32-labeled rhinovirus RNA; assay type: biochemical; conditions: 30 minutes, pH 7.6, 36° C.
Method: 6. The synergistic effect of the complexing agent (e.g. sodium pyrophosphate) and phosphorylating agent (e.g. adenosine triphosphate) was shown by means of the inducible decomposition of radioactive-labeled rhinovirus ribonucleic acid: Aliquotes (10^6 plaque-forming units) of purified rhinoviruses, the ribonucleic acid of which had been labeled with phosphorus-32, were incubated for 30 minutes with 5 n moles of adenosine triphosphate, either separately or with increasing quantities of sodium pyrophosphate at a pH-value of 7.6 and 36° C. As control values sodium pyrophosphate was used in various concentrations without adenosine triphosphate.

Nc1ncnc2c1ncn2[C@@H]1O[C@H](COP(=O)(O)OP(=O)(O)OP(=O)(O)O)[C@@H](O)[C@H]1O [Adenosine triphosphate, adenosine triphosphate]
removal of P^32-labeled γ-phosphate during the reaction with rhinovirus ([1]; Mg^++ -ion free medium): formation of adenosine diphosphate and rhinovirus-bonded P^32 | % degradation of the viral ribonucleic acid ([2]; adenosine triphosphate 5 n moles, sodium pyrophosphate 0): < 7.5%

O=P([O-])([O-])OP(=O)([O-])[O-].[Na+].[Na+].[Na+].[Na+] [Sodium pyrophosphate, sodium pyrophosphate]
% degradation of the viral ribonucleic acid ([2]; adenosine triphosphate 0, sodium pyrophosphate 50 n moles): < 10% | % degradation of the viral ribonucleic acid ([2]; adenosine triphosphate 0, sodium pyrophosphate 250 n moles): < 10% | % degradation of the viral ribonucleic acid ([2]; adenosine triphosphate 0, sodium pyrophosphate 500 n moles): < 10%

Nc1ncnc2c1ncn2[C@@H]1O[C@H](COP(=O)(O)OP(=O)(O)O)[C@@H](O)[C@H]1O [adenosine diphosphate]
induction of the autocatalytic RNA-degradation [1]: Inactivity

Nc1ncnc2c1ncn2[C@@H]1O[C@H](COP(=O)(O)OP(=O)(O)NP(=O)(O)O)[C@@H](O)[C@H]1O [Adenosine-imido-diphosphate]
initiating the autocatalytic inactivation of the rhinoviruses [1]: completely ineffective
